Laboratory results reported in patent US20240293367A1, “METHODS OF TREATING DISORDERS WITH A […]” (Cybin IRL Limited, priority 2023, published 2024).
Like-named read-outs stand apart in the source and are kept apart here.

How the values were obtained:
[1] = female, rat, in vivo, 40 mg/kg
[2] = Safety and tolerability (adverse events) in the Phase I/IIa study
[3] = 28-day (4-week GLP) toxicology study in dogs, toxicokinetic exposure; conditions: both sexes, dog, in vivo, toxicokinetic data, 28-day toxicology study in dogs, combined male and female
Excerpt: The exposure limits will be applied on mean values within a cohort.

[4] = all cohorts, psilocin-d10 n = 35

## [2H]C([2H])([2H])N(C([2H])([2H])[2H])C([2H])([2H])C([2H])([2H])c1c[nH]c2cccc(O)c12 [psilocin-d10, 3-(2-(bis(methyl-d3)amino)ethyl-1,1,2,2-d4)-1H-indol-4-ol]
[1]
  AUC(0-t): 3.63 µg·h/mL
  Cmax: 0.343 µg/mL
[2]; 8 mg
  nausea at least possibly related to study treatment: 2 out of 4
[2]; 12 mg
  nausea at least possibly related to study treatment: 6 out of 24
[2]; 16 mg
  nausea at least possibly related to study treatment: 3 out of 12
[2]; Cohort 3
  headache at least possibly related to study treatment: 1 subject
[2]; Cohort 4
  headache at least possibly related to study treatment: 1 subject
  vomiting at least possibly related to study treatment: 1 subject
[2]; Cohort 6
  vomiting at least possibly related to study treatment: 3 subjects
[2]; all cohorts
  discontinuation due to AEs: No participants discontinued due to AEs
[2]; all cohorts incl. healthy volunteers, psilocin-d10 n = 35
  Drug-related, treatment-emergent adverse events: At least one AE: 21 (60.0) n (%)
[2]; [4]
  Drug-related TEAE: Affect lability: 1 (2.9) n (%)
  Drug-related TEAE: Anxiety: 2 (5.7) n (%)
  Drug-related TEAE: Blood pressure increased: 5 (14.3) n (%)
  Drug-related TEAE: Confusional state: 1 (2.9) n (%)
  Drug-related TEAE: Dizziness: 1 (2.9) n (%)
  Drug-related TEAE: Eructation: 1 (2.9) n (%)
  Drug-related TEAE: Headache: 3 (8.6) n (%)
  Drug-related TEAE: Nasal congestion: 1 (2.9) n (%)
  Drug-related TEAE: Nausea: 6 (17.1) n (%)
  Drug-related TEAE: Panic Attack: 1 (2.9) n (%)
  Drug-related TEAE: Tachycardia: 1 (2.9) n (%)
  Drug-related TEAE: Vomiting: 2 (5.7) n (%)
[2]; dosage levels up to 16 mg, 8 healthy volunteers and 38 participants with MDD
  tolerability: well tolerated without significant adverse effects
[3]; read-out: predefined maximum exposure level, AUC0-24
  AUC(0-t): 0.123 µg·h/mL
[3]; read-out: predefined maximum exposure level, Cmax
  Cmax: 0.063 µg/mL
